Here are results for 14 compounds from PubChem BioAssay (NCI).

Holding throughout (assay): inhibition of tumour cell growth, NCI panel, 48 h
Assay [1] concerns ACHN renal.
Assay [2] has as its system DLD-1 colon.
Assay [3] deals with HOP-92 NSCLC.
Assay [4] has as its system OVCAR-4 ovarian.
In assay [5] the test system is OVCAR-5 ovarian.
The test system of assay [6] is SK-MEL-2 melanoma.
In assay [7] the test system is SNB-75 CNS.
Assay [8] deals with SNB-78 CNS.
Assay [9] relates to SW-620 colon.
For assay [10], the system named is M19-MEL melanoma.

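Compound exposure: 48 hours, 5 concentrations, 96-well plates. GI50 is the concentration that inhibits growth by half. The concentration for full growth arrest is given as TGI.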 Where only a bound is given, the exact number is not on record here.

Regarding `N.N.NCCCCCCCCCN.O=C([O-])CC(=O)[O-].O=C([O-])CC(=O)[O-].[Pt+4].[Pt+4]`, the GI50 in assay [1] is 90.3 µM; in assay [2], greater than 100 µM; in [3], greater than 100 µM; in assay [4], greater than 100 µM; in [5], greater than 100 µM; in [6], greater than 100 µM. Moreover, the GI50 is greater than 100 µM in assay [7], greater than 100 µM in assay [8] and 66.4 µM in [9]. Moreover, the TGI in [1], in assay [2], in [3], in [4], in assay [5] and in [6] was greater than 100 µM each time. Besides, the TGI in assay [7], in assay [8] and in assay [9] was greater than 100 µM in each case.

`OCC(O)CNc1ccnc2cc(Cl)ccc12` (centres undefined): the TGI in assay [1], in assay [2], in assay [3], in assay [10], in assay [4] and in assay [5] was greater than 100 µM each time. Besides, the TGI in assay [6], in assay [7], in assay [8] and in assay [9] was greater than 100 µM throughout.

As to `CCCCc1c2c(nc3c1CCC/C3=C\c1ccccc1)/C(=C/c1ccccc1)CCC2`, the TGI in assay [1], in assay [10] and in assay [9] was greater than 100 µM in each case.

With `N#CC(C(=O)CCC(=O)Nc1cccc(C(F)(F)F)c1)c1ccc(Cl)cc1` (centres undefined), the TGI in [1], in assay [2], in assay [3], in assay [10], in assay [4] and in assay [5] was greater than 100 µM each time. Besides, the TGI in assay [8] and in [9] was greater than 100 µM throughout.

On to `Cc1cccc(C(C)C)c1NC(=O)C(=O)C(C(=O)c1ccccc1F)C1OC(=O)c2ccccc21` (centres undefined), for which the TGI is greater than 100 µM in assay [1]; 30.8 µM in assay [2]; 48.2 µM in assay [3]; 26.4 µM in assay [10]; 74.2 µM in assay [4]; 99.9 µM in [5]. The figures for the TGI in [6], in assay [7] and in assay [9] were 30.1 µM, 45.9 µM and 58.9 µM, respectively.

For `CC(C(=O)n1c2ccccc2c2ccccc21)N(c1ccccc1)c1ccccc1` (centres undefined), the TGI came to 30.7 µM in assay [1]; 43 µM in assay [2]; 32.5 µM in [10]; 33.6 µM in assay [5]; 28.4 µM in assay [6]; 37.8 µM in [7]. The values for the TGI in [8] and in assay [9] were 32 µM and 36 µM, respectively.

For the compound `O=C(O)CSc1n[nH]c(Cc2ccccc2)n1`, the TGI in [1], in assay [2], in assay [3], in assay [10], in assay [4] and in [5] was greater than 100 µM throughout. In addition, the TGI in [6], in assay [8] and in [9] was greater than 100 µM throughout.

For `c1ccc(CSc2nc3ccccc3nc2-c2cccs2)cc1`, the TGI in [1], in assay [2], in assay [3], in [10], in [4] and in assay [5] was greater than 100 µM throughout. The TGI in assay [6], in assay [7] and in assay [8] was greater than 100 µM throughout.

Consider `O=C(O)CN(c1ccccc1)S(=O)(=O)c1ccc([N+](=O)[O-])cc1`, for which the TGI in assay [1], in assay [2], in assay [3], in [10], in [4] and in [5] was greater than 100 µM in each case. Also, the TGI in [6] and in [9] was greater than 100 µM in each case.

`Cc1cc(C(C)(C)C)cc(Cc2cc(C(C)(C)C)cc(Cc3cc(C(C)(C)C)cc(C)c3O)c2O)c1O`: the TGI in [2] turned out to be 18.5 µM; in assay [3], 10.5 µM; in [10], 11.1 µM; in assay [4], 20.2 µM; in assay [5], 31.3 µM; in [6], 22.3 µM. For the same compound, the TGI in assay [7] stood at 15.5 µM; in assay [8] it was 17.9 µM; in assay [9], 17.4 µM.

On to `CC1=C(C(=O)NNS(=O)(=O)c2ccc(C)cc2)CC(C(=O)NNS(=O)(=O)c2ccc(C)cc2)=C(C)N1`, for which the TGI in [1], in [2], in assay [10], in [4], in assay [5] and in assay [6] was greater than 100 µM each time. In addition, the TGI in assay [8] and in [9] was greater than 100 µM in each case.

Turning to `O=c1nc(-c2ccccc2)cc(-c2ccccc2O)[nH]1`, the TGI in assay [1], in assay [2], in assay [3], in assay [10], in [4] and in assay [5] was greater than 100 µM in each case. The TGI in assay [7], in assay [8] and in assay [9] was greater than 100 µM each time.

For `O=C(Nc1ccc(Cl)c(Cl)c1)Nc1ccccc1O`, the GI50 in [1] was 3.9 µM; in [3] it was 6.46 µM; in assay [4], 5.44 µM; in assay [5], 15.7 µM; in assay [6], 5.51 µM; in assay [7], 13.7 µM. Also, in assay [9], the GI50 was 5.42 µM. The TGI in [1] was 51.5 µM; in assay [3] it was 27.3 µM; in assay [4], greater than 100 µM; in assay [5] it was 53.2 µM; in [6] it was 17 µM; in assay [7], 50.5 µM. Moreover, the TGI in assay [9] amounted to 19.5 µM.

Regarding `CC1C(=O)OC2CC[N+]3([O-])CC=C(COC(=O)C(C)(O)C1(C)O)C23` (centres undefined), the TGI in assay [1], in assay [3], in assay [4], in assay [5], in assay [6] and in assay [7] was greater than 100 µM throughout. This compound displayed a TGI in assay [9] greater than 100 µM.
